Here are results for 16 molecules from patent US8575160B2, “Imidazole derivatives as aldosterone synthase inhibitors” (Novartis AG, priority 2009, dated 2013).

Assay [1] addresses T1, aldosterone synthase (CYP11B2) (Homo sapiens, UniProt P19099).
T1 construct: host or cells: NCI-H295R
T1 sequence (P19099 25-503): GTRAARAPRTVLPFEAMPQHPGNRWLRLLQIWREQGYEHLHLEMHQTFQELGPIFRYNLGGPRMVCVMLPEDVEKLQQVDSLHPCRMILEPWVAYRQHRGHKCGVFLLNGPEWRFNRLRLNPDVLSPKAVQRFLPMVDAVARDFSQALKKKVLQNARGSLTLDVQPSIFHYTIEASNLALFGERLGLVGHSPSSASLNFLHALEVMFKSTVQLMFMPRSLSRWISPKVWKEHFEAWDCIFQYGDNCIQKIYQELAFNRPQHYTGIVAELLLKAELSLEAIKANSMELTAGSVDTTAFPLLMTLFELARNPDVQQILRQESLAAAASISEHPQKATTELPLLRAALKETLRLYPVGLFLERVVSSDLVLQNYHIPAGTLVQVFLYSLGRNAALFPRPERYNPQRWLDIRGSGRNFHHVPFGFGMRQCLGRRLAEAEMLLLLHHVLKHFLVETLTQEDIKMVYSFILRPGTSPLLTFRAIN
Put plainly: cellular aldosterone production in NCI-H295R cells (aldosterone synthase inhibition). The format is cell-based. The text has this: In particular, the aldosterone synthase inhibitory activities in vitro can be determined by the following assay.
Human adrenocortical carcinoma NCI-H295R cell line was obtained from American Type Culture Collection (Manassas, Va.). Insulin/transferrin/selenium (ITS)-A supplement (100×), DMEM/F-12, antibiotic/antimycotic (100×), and fetal bovine serum (FBS) were purchased from Invitrogen (Carlsbad, Calif.). Anti-mouse PVT scintillation proximity assay (SPA) beads and NBS 96-well plates were obtained from GE Health Sciences (Piscataway, N.J.) and Corning (Acton, Mass.), respectively. Solid black 96-well flat bottom plates were purchased from Costar (Corning, N.Y.). Aldosterone and angiotensin (Ang II) were purchased from Sigma (St. Louis, Mo.). D[1,2,6,7-^3H(N)]aldosterone was acquired from PerkinElmer (Boston, Mass.). Nu-serum was a product of BD Biosciences (Franklin Lakes, N.J.).
For in vitro measurement of aldosterone activity, human adrenocortical carcinoma NCI-H295R cells are seeded in NBS 96-well plates at a density of 25,000 cells/well in 100 μl of a growth medium containing DMEM/F12 supplemented with 10% FCS, 2.5% Nu-serum, 1 μg ITS/ml, and 1× antibiotic/antimycotic. The medium is changed after culturing for 3 days at 37° C. under an atmosphere of 5% CO2/95% air. On the following day, cells are rinsed with 100 μl of phosphate-buffered saline (PBS) and incubated with 100 μl of treatment medium containing 1 μM Ang II and a compound at different concentrations in quadruplicate wells at 37° C. for 24 hr. At the end of incubation, 50 μl of medium is withdrawn from each well for measurement of aldosterone production by an SPA using mouse anti-aldosterone monoclonal antibodies.
Measurement of aldosterone activity can also be performed using a 96-well plate format. Each test sample is incubated with 0.02 μCi of D[1,2,6,7-^3H(N)]aldosterone and 0.3 μg of anti-aldosterone antibody in PBS containing 0.1% Triton X-100, 0.1% bovine serum albumin, and 12% glycerol in a total volume of 200 μl at room temperature for 1 hr. Anti-mouse PVT SPA beads (50 μl) are then added to each well and incubated overnight at room temperature prior to counting in a Microbeta plate counter. The amount of aldosterone in each sample is calculated by comparing with a standard curve generated using known quantities of the hormone.
(§1) Inhibition of the release of certain steroids can be used as a measure of the respective enzyme inhibition by the added test compounds. The dose-dependent inhibition of enzymic activity by a compound is calculated by means of an inhibition plot which is characterized by an IC50.
(§2) The IC50 values for active test compounds are ascertained by a simple linear regression analysis in order to construct inhibition plots without data weighting. The inhibition plot is calculated by fitting a 4-parameter logistic function to the raw data points using the least squares method. The equation of the 4-parameter logistic function is calculated as follows: Y=(d−a)/((1+(x/c)b))+a, where: a=minimum data level, b=gradient, I […], d=maximum data level, x=inhibitor concentration.

In assay [2] the target is T2, CYP11B1 (Homo sapiens, UniProt P15538).
T2 construct: the NCI-H295R cells have CYP11 B1 (steroid 11 β-hydroxylase); host or cells: NCI-H295R
T2 sequence (P15538 25-503): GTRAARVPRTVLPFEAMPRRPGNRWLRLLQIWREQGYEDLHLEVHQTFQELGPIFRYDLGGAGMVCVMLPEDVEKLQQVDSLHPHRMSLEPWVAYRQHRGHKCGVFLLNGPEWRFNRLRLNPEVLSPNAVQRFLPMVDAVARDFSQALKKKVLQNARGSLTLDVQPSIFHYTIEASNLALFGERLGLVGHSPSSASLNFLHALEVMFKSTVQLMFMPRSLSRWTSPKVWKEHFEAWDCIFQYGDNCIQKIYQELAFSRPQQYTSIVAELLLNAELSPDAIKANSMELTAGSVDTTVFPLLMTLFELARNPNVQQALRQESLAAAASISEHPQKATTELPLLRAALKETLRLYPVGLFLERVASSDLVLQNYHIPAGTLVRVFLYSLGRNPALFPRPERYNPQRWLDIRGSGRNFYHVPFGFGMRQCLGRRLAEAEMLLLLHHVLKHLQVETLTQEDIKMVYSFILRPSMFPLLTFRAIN
Put plainly: cellular cortisol production in NCI-H295R cells (CYP11B1 inhibition). The format is cell-based.
Source text: The in vitro inhibitory activities for CYP11B1 can be determined by the following assay.
The cell line NCI-H295R was originally isolated from an adrenocortical carcinoma and has been characterized in the literature through the stimulable secretion of steroid hormones and the presence of the enymes essential for steroidogenesis. Thus, the NCI-H295R cells have CYP11 B1 (steroid 11 β-hydroxylase). The cells show the physiological property of zonally undifferentiated human foetal adrenocortical cells which, however, have the capacity to produce the steroid hormones which are formed in the three, phenotypically distinguishable zones in the adult adrenal cortex.
The NCI-H295R cells (American Type Culture Collection, ATCC, Rockville, Md., USA) are grown in Dulbeoco's Modified Eagle'Ham F-12 Medium (DME/F12), which has been supplemented with Ulroser SF Serum (Soprachem, Cergy-Saint-Christophe, France), insulin, transferrin, selenite (I-T-S, Becton Dickinson Biosiences, Franklin lakes, NJ, USA) and antibiotics in 75 cm^2 cell culture vessels at 37° C. and in a 95% air-5% carbon dioxide atmosphere. The cells are subsequently transferred for colony formation into a 24-well incubation vessel. They are cultivated there in DME/F12 medium, which is now supplemented with 0.1% bovine serum instead of Ultroser SF for 24 hours. The experiment is initiated by cultivating the cells in DME/F12 medium which is supplemented with 0.1% bovine serum albumin and test compound, in the presence or absence of cell stimulants, for 72 hours. The test substance is added in a concentration range from 0.2 nanomolar to […]. Cell stimulants which can be used are angiotensin 11 (1 D or 100 nanomolar), potassium ions (16 millimolar), forskolin (10 micromolar) or a combination of two stimulants.
The excretion of aldosterone, cortisol, corticosterone and estradiol/estrone into the culture medium can be detected and quantified by commercially available, specific monoclonal antibodies in radioimmunoassays in accordance with the manufacturer's instructions.
as §1, §2

What is called IC50 is the concentration at which inhibition is half-maximal. `N#Cc1ccc([C@H]2C[C@](O)(C#CC3CC3)c3cncn32)c(F)c1` [Example 1-52, 4-((5R,7S)-7-(cyclopropylethynyl)-7-hydroxy-6,7-dihydro-6H-pyrrolo[1,2-c]imidazol-5-yl)-3-fluorobenzonitrile]: the figures for the IC50 in assay [1] and in assay [2] were 142 nM and 273 nM, respectively.
On to `N#Cc1ccc([C@H]2C[C@@](O)(c3ccc4ccccc4c3)c3cncn32)c(F)c1` [Example 1-17], for which the IC50 in assay [1] was determined as 1 nM; in assay [2], 14 nM.
As to `N#Cc1ccc([C@H]2C[C@](O)(c3ccc4ccccc4c3)c3cncn32)c(F)c1` [Example 1-16], the IC50 worked out at 2 nM in assay [1] and 143 nM in assay [2].
With `N#Cc1ccc([C@H]2C[C@](O)(CC(=O)Nc3cccc(OC(F)(F)F)c3)c3cncn32)c(F)c1` [Example 4-15], the IC50 in assay [1] amounted to 72 nM; in assay [2], 8780 nM.
`N#Cc1ccc([C@H]2C[C@](O)(c3cccc(C4CC4)c3)c3cncn32)c(F)c1` [Example 1-2, 4-((5R,7S)-7-(3-cyclopropylphenyl)-7-hydroxy-6,7-dihydro-5H-pyrrolo[1,2-c]imidazol-5-yl)-3-fluorobenzonitrile]: the IC50 amounted to 27 nM in assay [1] and 84 nM in assay [2].
As to `Cc1ccc([C@@]2(O)C[C@H](c3ccc(C#N)cc3F)n3cncc32)cc1C` [Example 1-4, 4-((5R,7S)-7-(3,4-dimethylphenyl)-7-hydroxy-6,7-dihydro-5H-pyrrolo[1,2-c]imidazol-5-yl)-3-fluorobenzonitrile], the IC50 in assay [1] turned out to be 5 nM; in assay [2], 480 nM.
For `CCc1ccc([C@@]2(O)C[C@H](c3ccc(C#N)cc3F)n3cncc32)cc1` [Example 1-32], the IC50 in assay [1] amounted to 6 nM; in assay [2], 645 nM.
For `N#Cc1ccc([C@H]2C[C@](O)(c3cccc(-c4ccc(F)cc4)c3)c3cncn32)c(F)c1` [Example 1-30], the results for the IC50 in assay [1] and in assay [2] were 25 nM and 522 nM, respectively.
Consider `Cn1c([C@@]2(O)C[C@H](c3ccc(C#N)cc3F)n3cncc32)cc2ccccc21` [Example 1-50], for which the results for the IC50 in assay [1] and in assay [2] were 7 nM and 1800 nM, respectively.
For the molecule `Cc1cc(-c2ccc([C@@]3(O)C[C@H](c4ccc(C#N)cc4F)n4cncc43)cc2)ccn1` [Example 3-14], the IC50 in assay [1] came to 64 nM; in assay [2], 10200 nM.
With `CC1(C)[C@H](c2ccc(C#N)cc2F)n2cncc2[C@@]1(O)c1ccc(F)cc1` [Example 1-53, 3-fluoro-4-((5R,7R)-7-(4-fluorophenyl)-7-hydroxy-6,6-dimethyl-6,7-dihydro-5H-pyrrolo[1,2-c]imidazol-5-yl)benzonitrile], the IC50 in assay [1] was 42 nM; in assay [2], 220 nM.
Turning to `N#Cc1ccc([C@H]2C[C@](O)(CCc3ccccc3)c3cncn32)c(F)c1` [Example 1-12], the IC50 in assay [1] came to 2 nM; in assay [2] it was 6 nM.
The matching figures for `COc1cc(-c2cccc([C@@]3(O)C[C@H](c4ccc(C#N)cc4F)n4cncc43)c2)ccn1` [Example 2-10]: 6 nM and 338 nM.
`N#Cc1ccc([C@H]2C[C@](O)(c3ccc4c(c3)OCO4)c3cncn32)c(F)c1` [Example 1-13]: the results for the IC50 in assay [1] and in assay [2] were 34 nM and 103 nM, respectively.
As for `N#Cc1ccc([C@H]2CC[C@](O)(c3ccc(-c4ccccc4)cc3)c3cncn32)cc1` [Example 1-41], the values for the IC50 in assay [1] and in assay [2] were 72 nM and 135 nM, respectively.
In the same order, the values of `C=C[C@@]1(O)C[C@H](c2ccc(C#N)cc2F)n2cncc21` [Example 1-1, 3-fluoro-4-((5R,7S)-7-hydroxy-7-vinyl-6,7-dihydro-5H-pyrrolo[1,2-c]imidazol-5-yl)benzonitrile] are 11 nM and 472 nM.
